The text below walks through data of PubChem BioAssay (NCI).

Common to all, as to assay: NCI tumour cell line growth inhibition, 48 h
Assay [1] deals with COLO 205 colon.
Assay [2] deals with EKVX NSCLC.
The test system of assay [3] is HOP-92 NSCLC.
Assay [4] has as its system LOX IMVI melanoma.
The test system of assay [5] is MDA-MB-435.
The test system of assay [6] is NCI-H522 lung.
Assay [7] has as its system NCI/ADR-RES ovarian.
Assay [8] concerns RXF 393 renal.
For assay [9], the system named is SK-MEL-2 melanoma.
For assay [10], the system named is SNB-75 CNS.

Molecules are shown by their SMILES.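 Method: 48-hour compound exposure of cells in 96-well plates, five concentrations, linear interpolation of endpoints. GI50: concentration for 50% inhibition of growth. At the TGI there is no net growth.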

Turning to `[C](#Cc1ccccc1)[Hg][C]#Cc1ccccc1`, the GI50 in assay [1] is 22.2 µM; in assay [2] it was above 100 µM; in assay [3] it was 21.1 µM; in assay [4] it was 25.4 µM; in assay [5] it was 43.2 µM; in assay [6] it was 19.4 µM. The GI50 in assay [7] is above 100 µM; in [8], 16.5 µM; in assay [9] it was 37.7 µM; in assay [10] it was above 100 µM. Moreover, the TGI is 48 µM in assay [1]; above 100 µM in assay [2]; 47.5 µM in assay [3]; 63.7 µM in assay [4]; above 100 µM in [5]; 46.1 µM in assay [6]. The TGI in assay [7] is above 100 µM; in [8], 34.9 µM; in assay [9], above 100 µM; in assay [10], above 100 µM.
In the case of `COc1cc(OC)c(C(=O)/C=C/c2cc3c(cc2OCc2ccccc2)OC(C)(C)CC3)cc1CC=C(C)C`, the GI50 in assay [1] was 3.97 µM; in assay [2], 6.73 µM; in [3] it was 3.52 µM; in assay [4] it was 3.25 µM; in assay [5] it was 4.54 µM; in assay [6], 7.85 µM. Also, the GI50 in [7] was 6.89 µM; in assay [8], 5.91 µM; in assay [9], 6.84 µM; in assay [10] it was 2.44 µM. The TGI was 8.9 µM in assay [1]; 22.6 µM in assay [2]; 19.9 µM in [3]; 7.17 µM in assay [4]; 18.2 µM in assay [5]; above 25 µM in assay [6]. In addition, the TGI in assay [7] was above 25 µM; in [8], 17.1 µM; in assay [9] it was above 25 µM; in [10], 13.1 µM.
Regarding `Cc1nc(-c2ccccc2)n2nc(NCCCN3CCOCC3)ncc12`, the GI50 was 19.1 µM in assay [1]; above 25 µM in assay [2]; 10.6 µM in assay [3]; 15.1 µM in assay [4]; above 25 µM in [5]; above 25 µM in assay [6]. The GI50 is above 25 µM in [7], 6.75 µM in assay [8], 10.5 µM in assay [9] and above 11.9 µM in assay [10]. Further, the TGI in [1], in assay [2], in [3], in assay [4], in assay [5] and in [6] was above 25 µM each time. The TGI in assay [7], in assay [8], in assay [9] and in [10] was above 25 µM in each case.
Take `COc1cc(C2SCCCCCCCCCCSC(c3ccc(O)c(OC)c3)SCCCCCCCCCCS2)ccc1O` (stereo not given): the TGI in assay [1], in assay [2], in assay [3], in assay [4], in assay [5] and in [6] was above 100 µM throughout. In addition, the TGI in assay [7], in assay [8], in assay [9] and in assay [10] was above 100 µM each time.
Turning to `CC(=O)Oc1ccc(C23c4ccccc4C2(OC(C)=O)c2cc(OC(C)=O)ccc23)cc1` (stereo not given), the GI50 in assay [1] was 14.5 µM; in assay [2] it was 3.52 µM; in [3], 5.01 µM; in assay [4], 3.48 µM; in assay [5], 4.9 µM; in assay [6] it was 2.81 µM. Also, the GI50 in assay [7] is 2.82 µM; in assay [8] it was 3.38 µM; in assay [9] it was 27.7 µM; in [10] it was 6.49 µM. The TGI in assay [1] came to 29.1 µM; in assay [2], 16.6 µM; in [3], 20.3 µM; in assay [4], 12.8 µM; in assay [5] it was 25.6 µM; in [6], 8.04 µM. The TGI in assay [7] amounted to 10.2 µM; in [8], 12.3 µM; in assay [9], 94.3 µM; in assay [10] it was 54.7 µM.
Take `Nc1ccccc1C#C/C=C\C#Cc1ccc(OCCCNC(=O)c2cc3ccccc3[nH]2)cc1`: the GI50 in assay [1] is 9.12 µM; in assay [2], 16.4 µM; in assay [3], 14.4 µM; in assay [4], 2.77 µM; in assay [5], 20.6 µM; in [6], above 100 µM. Further, the GI50 was 10.1 µM in assay [7], 7.15 µM in assay [8], above 100 µM in [9] and 11.2 µM in assay [10]. For the same molecule, the TGI was above 100 µM in [1]; 92.7 µM in assay [2]; 37.5 µM in assay [3]; 28.7 µM in assay [4]; above 100 µM in assay [5]; above 100 µM in [6]. The TGI is above 100 µM in assay [7], 22 µM in assay [8], above 100 µM in [9] and 73.3 µM in assay [10].
On to `Nc1nonc1-c1nc2cnccc2n1C1CC1`, for which the GI50 was 4.52 µM in assay [1]; 1.63 µM in assay [2]; 0.502 µM in [3]; 6.54 µM in assay [4]; 11.2 µM in assay [5]; 3.43 µM in assay [6]. Besides, the GI50 in [7] was 10.6 µM; in assay [8], 1.2 µM; in assay [9] it was 5.35 µM; in assay [10], 3.02 µM. For the same molecule, the TGI in assay [1] was above 14.4 µM; in assay [2] it was above 25 µM; in [3] it was above 25 µM; in assay [4], above 18 µM; in [5], above 25 µM; in assay [6], 13.2 µM. For the same molecule, the TGI was above 25 µM in assay [7], 6.92 µM in [8], above 21.7 µM in assay [9] and above 18.5 µM in [10].
